Data reported in patent US10413583B2, “Synthetic substrates for enzymes that catalyze reactions of modified cysteines and related methods” (The University of Chicago, priority 2016, dated 2019).

System: HEPG2 cells
Experiment: Epifluorescent imaging of DPP-5 and diacetyl rhodol in HepG2 cells (PalmB, ML348, ML349, palmitate)
Format: cell-based, human
Details: for decrease in intensity of the signal from DPP-5: 10 μM inhibitor
Method: 250,000 HEK293T cells/well, 120,000 HeLa cells/well, or 100,000 HepG2 cells/well were plated in 700 μL DMEM glutamax (10% FBS+1% P/S) into 4-well chambered imaging dish (D35C4-20-1.5-N, Cellvis, Mountain View, Calif., United States of America), which were precoated with 5 μg Poly-D-lysine (30-70 KDa, Alfa Aesar, Haverhill, Mass., United States of America) for 2 h. After 20-24 h, the media was replaced by 1 μM Hoechst 33342 and DMSO/5 μM PalmB in 400 μL DMEM glutamax. After 30 min of incubation at 37° C., the cells were washed with 400 μL of Live Cell Imaging Solution and replaced by 1 μM DPP-5 with DMSO or 5 μM of PalmB in Live Cell Imaging Solution. After 20 min of incubation at 37° C., images were obtained on an inverted epifluorescence microscope (Olympus IX83; Olympus Corporation, Tokyo, Japan) attached with EMCCD camera (Photometrics EVOLVE™ Delta, Photometrics, Tucson, Ariz., United States of America) with 40× oil objective (N/A 1.3) for DPP-5 (excitation filter 500/20, dichroic chroma 89007, emission filter 535/30), Hoechst 33342 (excitation filter 402/15, emission filter 455/50, dichroic chroma 89013), and brightfield. Analyses were performed in ImageJ. For data analysis, the average fluorescence intensity per image in each experimental condition was obtained by selecting ROI in Brightfield and applying that to the corresponding DPP-5 image, average background fluorescence intensity was subtracted and data was normalized to the average fluorescence intensity of the DMSO control. Each experiment was repeated in at least two biological replicates with identical results.
16,000 HepG2 cells/well were plated in 100 μL DMEM glutamax (10% fetal bovine serum (FBS)) into 4 wells of a 96-well chambered imaging dish (P96-1-N, Cellvis, Mountain View Calif., United States of America), which were precoated with 0.7 μg Poly-D-lysine (30-70 KDa, Alfa Aesar, Haverhill, Mass., United States of America) for 2 hrs. After 24 h, cells were washed with Live Cell Imaging Solution and replaced by 1 μM Hoechst 33342 and DMSO/10 μM ML348/10 μM ML349/10 μM of both ML348 and ML349 in 100 μL DMEM glutamax. After 30 min of incubation at 37° C., the cells were washed with 100 μL of Live Cell Imaging Solution and replaced by 1 μM DPP-5 in Live Cell Imaging Solution. After 20 min of incubation at 37° C., images were obtained on an inverted epifluorescence microscope (Leica DMi8; Leica Microsystems, Wetzlar, Germany) equipped with a camera (Hamamatsu Orca-Flash 4.0; Hamamatsu, Hamamatsu City, Japan) with 63× oil objective (N/A 1.4) and light source (Sutter Lamda XL, 300 W Xenon; Sutter Instrument, Novato, Calif., United States of America) for DPP-5 (YFP filter cube 1525306), Hoechst 33342 (DAPI filter cube), and brightfield using Leica LASX software (Leica Microsystems, Wetzlar, Germany). Analyses were performed in ImageJ. Each experiment was repeated in three biological replicates and 8-12 images were considered for plotting bar graphs for quantification. For detailed data analysis, the average fluorescence intensity per image in each experimental condition was obtained by selecting ROI in Brightfield and applying that to the corresponding DPP-5 image, average background fluorescence intensity was subtracted and data was normalized to the average fluorescence intensity of the control experiment. […] 250,000 HEK293T cells/well were plated in 700 μL DMEM glutamax (10% FBS+1% P/S) into three wells of a 4-well chambered imaging dish (D35C4-20-1.5-N, Cellvis, Mountain View, Calif., United States of America), which were precoated with 5 μg Poly-Dlysine (30-70 KDa, Alfa Aesar, Haverhill, Mass., United States of America) for 2 h. After 18 h, the media was replaced by 1 μM Hoechst 33342 in 400 μL DMEM glutamax. […] After 20 min of incubation at 37° C., images were obtained and analyzed as described above. […]

CCCCCCCCCCCCCCCC(=O)SC[C@@H](C(=O)NC)N(C)C(=O)Oc1ccc2c(c1)Oc1cc(N3CCN(C(=O)CCC(=O)O)CC3)ccc1C21OC(=O)c2ccccc21 (some centres unmarked) [DPP-5]
probe fluorescent signal in cells (1 μM probe for 20 minutes): robust intracellular fluorescent signal

COc1ccc(N2CCN(C(=O)c3cc4c(s3)-c3ccccc3S(=O)(=O)C4)CC2)cc1 [ML349]
decrease in intensity of the signal from DPP-5 (1 μM DPP-5): no change in signal

O=C(CN1CCN(C(=O)c2ccco2)CC1)Nc1cc(C(F)(F)F)ccc1Cl [ML348]
decrease in intensity of the signal from DPP-5 (1 μM DPP-5): about 30%

CCCCCCCCCC[C@@H]1C(=O)O[C@H]1CCc1ccc(OC)c(OC)c1 [PalmB, palmostatin B]
turn-on response of DPP-5 blocked (5 μM PalmB pretreatment, 1 μM DPP-5): more than 95% | effect on DPP-5 signal in palmitate experiment (1% BSA with or without 1 mM palmitate, 5 μM PalmB): reduces the intensity of the DPP-5 signal
